Laboratory results as given in patent US10676473B2, “Solid state forms of fused heteroaromatic pyrrolidinones” (TAKEDA PHARMACEUTICAL COMPANY LIMITED, priority 2014, dated 2020).
≈ marks a conversion by molar mass, not a printed value. Entries after “also recorded” stand apart in the source; their conditions may differ. Where a name gives a salt, the structure may show the parent alone. Read-outs that look alike come from different tables or passages of the source.

How the values were obtained:
[1] = Gravimetric vapour sorption (GVS) isotherm; assay type: physicochemical; settings: for hygroscopicity by GVS / GVS behaviour (dehydration, crystallisation, transformation): 25° C.; for hygroscopicity by GVS: subjected to humidity (various RH levels); for GVS behaviour (dehydration, crystallisation, transformation): RH as stated in the value; for change in form / XRPD pattern post GVS analysis: XRPD after the isotherm; for GVS mass / total weight change: between 0-90% RH; for water exchanged (GVS): between 0 and 90% RH
Method: Sorption isotherms were obtained using a SMS DVS Intrinsic moisture sorption analyser, controlled by DVS Intrinsic Control software v1.0.0.30. The sample temperature was maintained at 25° C. by the instrument controls. The humidity was controlled by mixing streams of dry and wet nitrogen, with a total flow rate of 200 ml/min The relative humidity was measured by a calibrated Rotronic probe (dynamic range of 1.0-100% RH), located near the sample. The weight change, (mass relaxation) of the sample as a function of % RH was constantly monitored by the microbalance (accuracy ±0.005 mg).
Typically 5-20 mg of sample was placed in a tared mesh stainless steel basket under ambient conditions. The sample was loaded and unloaded at 40% RH and 25° C. (typical room conditions). A moisture sorption isotherm was performed as outlined below (2 scans giving 1 complete cycle). The standard isotherm was performed at 25° C. at 10% RH intervals over a 0-90% RH range. Data analysis was undertaken in Microsoft Excel using DVS Analysis Suite v6.0.
The sample was recovered after completion of the isotherm and re-analyzed by XRPD.

[2] = Storage at elevated temperature/humidity, form checked by XRPD; assay type: physicochemical; settings: for stability on storage: duration not given; for stability to moisture / humidity: exposure to humidity
[3] = Plasma pharmacokinetics in patients, oral once daily dosing; settings: human, in vivo
Method: (§1) Patients aged ≥18 yrs with advanced solid tumors/lymphoma whose disease failed standard therapies received oral Compound 1 citrate (Form 1) daily (QD, 60-120 mg) in 28 day cycles. To determine the maximum tolerated dose, dose escalation proceeded via modified titration design based on dose limiting toxicity or any drug-related grade ≥2 adverse event (AE) during cycle 1. Blood samples for plasma pharmacokinetic assessments were collected pre-dose and post-dose on day 1 and day 15 of cycle 1. Response assessments per RECIST for solid tumors and per IWG criteria for lymphoma were performed between day 22 and day 29 (pre-dose) of cycle 2, 4 and 6, and every 3 cycles thereafter.

[4] = Safety and dose limiting toxicity in the dose escalation study in patients; assay type: in vivo, human
Method: as §1

[5] = test system: advanced solid tumors/lymphoma; assay: Response assessment (RECIST / IWG criteria) in patients; assay type: in vivo, human
Method: as §1

[6] = Solubility of solid forms; assay type: physicochemical
[7] = DLBCL, 60 mg QD, after 2 cycles

For `Cn1cc(-c2nc(N[C@@H]3CCCC[C@@H]3N)c(F)c3c2C(=O)NC3)cn1` [Compound 1 citrate, 6-(((1R,2S)-2-aminocyclohexyl)amino)-7-fluoro-4-(1-methyl-1H-pyrazol-4-yl)-1H-pyrrolo[3,4-c]pyridin-3(2H)-one citrate], the “hygroscopicity by GVS” value ([1]; citrate) was “non hygroscopic”.

For `Cn1cc(-c2nc(N[C@@H]3CCCC[C@@H]3N)c(F)c3c2C(=O)NC3)cn1` [Compound 1 free base, 6-((1R,2S)-2-aminocyclohexylamino)-7-fluoro-4-(1-methyl-1H-pyrazol-4-yl)-1H-pyrrolo[3,4-c]pyridine-3(2H)-one], the “GVS behaviour (dehydration, crystallisation, transformation)” value (shortened to “GVS behaviour”) [1] was “the methanol solvate desolvated, however, the anhydrous form was found to be stable” and the stability on storage ([2]; 40° C./75% RH) was “the methanol solvate desolvated, however, the anhydrous form was found to be stable”.

With `Cn1cc(-c2nc(N[C@@H]3CCCC[C@@H]3N)c(F)c3c2C(=O)NC3)cn1` [Form 1] the “hygroscopicity by GVS” value [1] was “not hygroscopic”, the GVS variation ([1]; RH range not printed at the place) was “less than 0.3 % w/w” and the “change in form / XRPD pattern post GVS analysis” value [1] was “No change in form was observed”. The “GVS mass / total weight change” value [1] was “less than 0.3%”, the “change in form after storage” value ([2]; 25° C./97% RH for 1 week) was “No change in form was observed” and the “change in form after storage” value ([2]; 40° C./75% RH for 1 week) was “No change in form was observed”. For the same compound, the mean accumulation ([3]; 15 days) was 2.7 fold, the “coefficient of variation for dl 5 AUCtau (variability in steady-state exposures)” value ([3]; po, 120 mg) was 47% and the Tmax ([3]; plasma, 11 patients at 60 and 120 mg oral QD, read-out: median Tmax) was 2 h. For the same compound, the “patients died on study (deaths not related to study drug)” value ([4]; 60 mg QD) was 3, the “patients died on study (deaths not related to study drug)” value ([4]; 120 mg QD) was 1 patient and the “patients discontinued due to adverse events” value ([4]; human, in vivo) was 3 patients. For the same compound, the “patients died on study (deaths not related to study drug)” value ([4]; overall, 15 patients) was 4 patients, the “DLBCL patients showing signs of response” value ([5]; 60 mg QD, after 2 cycles, 5 response-evaluable patients (4 DLBCL)) was 2 patients and the “patients with partial response” value [5, 7] was 1. The “tumor reduction in 1 patient” value [5, 7] was 25% and the “patients achieving partial response” value ([5]; DLBCL, 80 mg, after 1 cycle, post data cut-off) was 1 patient.

With `Cn1cc(-c2nc(N[C@@H]3CCCC[C@@H]3N)c(F)c3c2C(=O)NC3)cn1` [Form 2] the “GVS behaviour” value [1] was “adsorbs moisture in the range of 40-80% relative humidity (RH) and undergoes a crystallization event above 80% RH; also recorded: undergoes a crystallisation event above 80% RH”, the “change in form / XRPD pattern post GVS analysis” value [1] was “transformation to Form 1” and the “GVS weight loss accompanying crystallization” value ([1]; between 80% and 90% RH) was 7%. The “moisture adsorbed (GVS)” value ([1]; range of 40-80% RH) was 9 % w/w.

With `Cn1cc(-c2nc(N[C@@H]3CCCC[C@@H]3N)c(F)c3c2C(=O)NC3)cn1` [Form 3, 6-(((1R,2S)-2-aminocyclohexyl)amino)-7-fluoro-4-(1-methyl-1H-pyrazol-4-yl)-1H-pyrrolo[3,4-c]pyridin-3(2H)-one hydrochloride dihydrate] the “GVS behaviour” value ([1]; hydrochloride dihydrate) was “subject to dehydration below 20% RH”, the “change in form / XRPD pattern post GVS analysis” value ([1]; hydrochloride dihydrate) was “No change in form was observed” and the “change in form after storage” value ([2]; 25° C./97% RH for 1 week) was “No change in form was observed”. For the same compound, the “change in form after storage” value ([2]; 40° C./75% RH for 1 week) was “No change in form was observed”.

In the case of `Cn1cc(-c2nc(N[C@@H]3CCCC[C@@H]3N)c(F)c3c2C(=O)NC3)cn1` [Form 4], the “hygroscopicity by GVS” value [1] is reported as “not hygroscopic; also recorded: non-hygroscopic”, the “change in form during storage” value ([2]; 25° C./97% RH for 10 days) is reported as “did not change form” and the “change in form during storage” value ([2]; 40° C./75% RH for 10 days) is reported as “did not change form”. For the same compound, the “change in form during storage” value ([2]; 40° C./97% RH for 10 days) was “did not change form” and the “stability to moisture / humidity” value [2] was “stable to moisture”.

In the case of `Cn1cc(-c2nc(N[C@@H]3CCCC[C@@H]3N)c(F)c3c2C(=O)NC3)cn1` [Form 5], the “hygroscopicity by GVS” value [1] is reported as “not hygroscopic”, the “change in form / XRPD pattern post GVS analysis” value [1] is reported as “did not change form” and the “change in form during storage” value ([2]; 40° C./97% RH for 10 days) is reported as “did not change form”. For the same compound, the “stability to moisture / humidity” value [2] was “stable to moisture” and the solubility ([6]; medium not given, read-out: solubility) was 11000 µg/mL (≈ 31900 µM).

With `Cn1cc(-c2nc(N[C@@H]3CCCC[C@@H]3N)c(F)c3c2C(=O)NC3)cn1` [Form 6] the “GVS behaviour” value [1] was “adsorbs moisture and undergoes a crystallisation event above 70% RH”, the GVS water uptake ([1]; between 40-60% RH) was 5 % w/w and the GVS weight loss ([1]; between 70-90% RH) was 3%. For the same compound, the “stability to moisture / humidity” value [2] was “seems to undergo a phase transformation, possibly leading to Form 9”.

With `Cn1cc(-c2nc(N[C@@H]3CCCC[C@@H]3N)c(F)c3c2C(=O)NC3)cn1` [Form 7] the GVS water uptake ([1]; RH range not given) was 10.5% and the “stability to moisture / humidity” value [2] was “unstable to humidity and converted back to a hydrated form (Form 9)”.

With `Cn1cc(-c2nc(N[C@@H]3CCCC[C@@H]3N)c(F)c3c2C(=O)NC3)cn1` [Form 8] the “GVS behaviour” value [1] was “minimal weight variation between 10 and 90% RH”.

In the case of `Cn1cc(-c2nc(N[C@@H]3CCCC[C@@H]3N)c(F)c3c2C(=O)NC3)cn1` [Form 12], the “GVS behaviour” value [1] is reported as “Hysterisis was observed between 40 and 60% RH; also recorded: possibility of the transformation of Form 12 to a hydrated form”, the “GVS mass / total weight change” value [1] is reported as “about 6%” and the stability on storage ([2]; 25° C./97% RH) is reported as “not stable”. For the same compound, the stability on storage ([2]; 40° C./75% RH) was “No obvious stability issues were noted” and the solubility ([6]; water, pH 9.41, pH 9.41, read-out: aqueous solubility) was 580 µg/mL (≈ 1680 µM).

With `Cn1cc(-c2nc(N[C@@H]3CCCC[C@@H]3N)c(F)c3c2C(=O)NC3)cn1` [Form 13] the “hygroscopicity by GVS” value [1] was “not hygroscopic”, the “change in form / XRPD pattern post GVS analysis” value [1] was “no transformation to hydrates was observed” and the “GVS mass / total weight change” value [1] was “less than 0.6%”. The stability on storage ([2]; 25° C./97% RH) was “stable”, the stability on storage ([2]; 40° C./75% RH) was “stable” and the solubility ([6]; water, pH 9.05, pH 9.05, read-out: aqueous solubility) was 190 µg/mL (≈ 552 µM).

In the case of `Cn1cc(-c2nc(N[C@@H]3CCCC[C@@H]3N)c(F)c3c2C(=O)NC3)cn1` [Form 14], the “change in form / XRPD pattern post GVS analysis” value [1] is reported as “no change in the XRPD pattern was noted”, the “GVS mass / total weight change” value [1] is reported as 1.5% and the “water exchanged (GVS)” value [1] is reported as 0.25 eq. The stability on storage ([2]; 25° C./97% RH) was “stable” and the stability on storage ([2]; 40° C./75% RH) was “stable”.

With `Cn1cc(-c2nc(N[C@@H]3CCCC[C@@H]3N)c(F)c3c2C(=O)NC3)cn1` [Form 15] the “change in form / XRPD pattern post GVS analysis” value [1] was “no change in the XRPD pattern was noted”, the “GVS mass / total weight change” value [1] was 2.0% and the “water exchanged (GVS)” value [1] was 0.4 eq. The stability on storage ([2]; 25° C./97% RH) was “stable”, the stability on storage ([2]; 40° C./75% RH) was “stable” and the aqueous solubility ([6]; pH 9.41) was 710 µg/mL (≈ 2060 µM).

In the case of `Cn1cc(-c2nc(N[C@@H]3CCCC[C@@H]3N)c(F)c3c2C(=O)NC3)cn1` [Form 16], the “GVS behaviour” value [1] is reported as “dehydration below 30% RH; also recorded: stable at and above 30% RH at 25 °C and desolvated below 30% RH”, the stability on storage ([2]; 25° C./97% RH) is reported as “No changes in the XRPD pattern were observed” and the stability on storage ([2]; 40° C./75% RH) is reported as “No changes in the XRPD pattern were observed”. It also gave a solubility ([6]; water, pH 9.27, pH 9.27, read-out: aqueous solubility) of 130 µg/mL (≈ 377 µM).

For `Cn1cc(-c2nc(N[C@@H]3CCCC[C@@H]3N)c(F)c3c2C(=O)NC3)cn1` [Form 17], the “change in form / XRPD pattern post GVS analysis” value [1] was “no change in the XRPD pattern was noted”, the “water exchanged (GVS)” value [1] was 0.3 eq and the stability on storage ([2]; 25° C./97% RH) was “stable”. For the same compound, the stability on storage ([2]; 40° C./75% RH) was “stable” and the solubility ([6]; water, pH 9.33, pH 9.33, read-out: aqueous solubility) was 180 µg/mL (≈ 523 µM).
